Here are results for 40 compounds from ChEMBL document CHEMBL2346585, “Novel 1,3,4-oxadiazole thioether derivatives targeting thymidylate synthase as dual anticancer/antimicrobial agents” (Bioorg Med Chem, 2013).

Molecules are shown by their SMILES. Values after ≈ are worked out from the molar mass of the structure shown.

For one test, the system named is SGC-7901. As to the kind of experiment: cells. The conditions noted are these: Homo sapiens, SGC-7901, 48 h.
The next test concerns HepG2. In words: cells. As to conditions: Homo sapiens, HepG2, 48 h.
The subject of a further test is MCF7. In words: cells. The conditions noted are these: Homo sapiens, MCF7, 48 h.
Test [1] is described as follows: Inhibition of Escherichia coli thymidylate synthase by spectrophotometric analysis.
The next test concerns Pseudomonas aeruginosa. In words: Antibacterial activity against Pseudomonas aeruginosa ATCC 27853 assessed as growth inhibition after 24 hrs by MTT assay. Format: functional. The conditions noted are these: ATCC 27853, 24 h.
The test system of the next test is Escherichia coli. As to the kind of experiment: Antibacterial activity against Escherichia coli ATCC 25922 assessed as growth inhibition after 24 hrs by MTT assay. The conditions noted are these: ATCC 25922, 24 h. Format: functional.
A further test deals with Bacillus subtilis. As to the kind of experiment: Antibacterial activity against Bacillus subtilis […] assessed as growth inhibition after 24 hrs by MTT assay. Format: functional.
The next test has as its system Staphylococcus aureus. As to the kind of experiment: Antibacterial activity against Staphylococcus aureus ATCC 530 assessed as growth inhibition after 24 hrs by MTT assay. The class given is functional. As to conditions: ATCC 530, 24 h.

Description for HepG2: Cytotoxicity against human HepG2 cells after 48 hrs by MTT assay
Description for MCF7: Cytotoxicity against human MCF7 cells after 48 hrs by MTT assay
Description for SGC-7901: Cytotoxicity against human SGC7901 cells after 48 hrs by MTT assay

Take `Cc1ncc([N+](=O)[O-])n1CCSc1nnc(-c2cccs2)o1`: the IC50 in the test on SGC-7901 was found to be 30.8 µM; in the test with HepG2, 20.5 µM; in the test on MCF7, 25.8 µM.

Regarding `Cc1ncc([N+](=O)[O-])n1CCSc1nnc(-c2ccc3ccccc3c2)o1`, the half-maximal inhibitory concentration (IC50) in the test on SGC-7901 was determined as 30.7 µM; in the test on HepG2, 10.1 µM; with MCF7, 34.1 µM.

With `Cc1ncc([N+](=O)[O-])n1CCSc1nnc(-c2ccc3c(c2)OCCO3)o1`, the IC50 came to 9.2 µM with SGC-7901, 2.4 µM in test [1], 4.1 µM with HepG2 and 14.5 µM with MCF7.

As for `Cc1ncc([N+](=O)[O-])n1CCSc1nnc(-c2ccc(F)cc2)o1`, the IC50 in the test on SGC-7901 was 5.3 µM; in test [1], 3.9 µM; in the test with HepG2, 0.6 µM; with MCF7, 8.1 µM.

Turning to `Cc1ncc([N+](=O)[O-])n1CCSc1nnc(-c2ccccc2Cl)o1`, the IC50 with SGC-7901 turned out to be 32.6 µM; in the test on HepG2, 15.6 µM; in the test with MCF7, 22.5 µM.

Turning to `Cc1ncc([N+](=O)[O-])n1CCSc1nnc(-c2ccc(Cl)cc2)o1`, the half-inhibitory concentration (IC50) was determined as 31.9 µM in the test with SGC-7901, 7.8 µM in the test with HepG2 and 18.7 µM in the test on MCF7.

In the case of `Cc1ncc([N+](=O)[O-])n1CCSc1nnc(-c2ccccc2O)o1`, the IC50 with SGC-7901 worked out at 30.5 µM; in the test with HepG2 it was 19.6 µM; in the test with MCF7, 28.3 µM.

As to `Cc1ncc([N+](=O)[O-])n1CCSc1nnc(-c2ccc(C(C)C)cc2)o1`, the IC50 with SGC-7901 is 13.8 µM; in test [1], more than 10 µM; with HepG2, 4.3 µM; in the test with MCF7 it was 20.7 µM.

Regarding `Cc1ncc([N+](=O)[O-])n1CCSc1nnc(-c2ccc(C(C)(C)C)cc2)o1`, the IC50 was 31.1 µM with SGC-7901, more than 10 µM in test [1], 4 µM with HepG2 and 22.1 µM in the test with MCF7.

As to `Cc1ncc([N+](=O)[O-])n1CCSc1nnc(-c2ccc(N(C)C)cc2)o1`, the half-inhibitory concentration (IC50) with SGC-7901 is 32.8 µM; with HepG2, 11.9 µM; in the test on MCF7 it was 14.9 µM.

With `Cc1cccc(-c2nnc(SCCn3c([N+](=O)[O-])cnc3C)o2)c1O`, the values for the IC50 with SGC-7901, in the test on HepG2 and in the test on MCF7 were 35.9 µM, 8.7 µM and 19.9 µM, respectively.

Turning to `Cc1ccc(-c2nnc(SCCn3c([N+](=O)[O-])cnc3C)o2)c(O)c1`, the IC50 in the test on SGC-7901 was found to be 36.7 µM; with HepG2, 16.6 µM; in the test on MCF7 it was 23.5 µM.

Regarding `COc1ccc(-c2nnc(SCCn3c([N+](=O)[O-])cnc3C)o2)c(O)c1`, the IC50 with SGC-7901 stood at 11.7 µM; with HepG2, 11 µM; with MCF7 it was 21.8 µM.

On to `COc1cc(OC)cc(-c2nnc(SCCn3c([N+](=O)[O-])cnc3C)o2)c1`, for which the IC50 in the test with SGC-7901 is 9.6 µM; in the test on HepG2, 10.5 µM; with MCF7, 12.8 µM.

With `COc1cc(-c2nnc(SCCn3c([N+](=O)[O-])cnc3C)o2)cc(OC)c1OC`, the concentration for half-maximal inhibition (IC50) with SGC-7901 is 34.8 µM; in test [1], more than 10 µM; with HepG2 it was 14.9 µM; in the test on MCF7 it was 30.6 µM.

As for `Cc1ncc([N+](=O)[O-])n1CCSc1nnc(-c2ccco2)o1`, the half-inhibitory concentration (IC50) came out at 31.7 µM in the test with SGC-7901, 22.6 µM in the test on HepG2 and 29.5 µM in the test with MCF7.

With `Cc1ncc([N+](=O)[O-])n1CCSc1nnc(-c2ccccn2)o1`, the values for the IC50 with SGC-7901, in the test with HepG2 and in the test on MCF7 were 30 µM, 20.2 µM and 39.1 µM, respectively.

Regarding `Cc1ncc([N+](=O)[O-])n1CCSc1nnc(-c2cccnc2)o1`, the IC50 worked out at 31.6 µM in the test on SGC-7901, 9.6 µM in the test on HepG2 and 28.7 µM with MCF7.

With `Cc1ncc([N+](=O)[O-])n1CCSc1nnc(-c2cnccc2N)o1`, the IC50 came out at 34.5 µM in the test on SGC-7901, 1.8 µM in test [1], 8.4 µM in the test on HepG2 and 29.3 µM with MCF7. The MIC in the test on Pseudomonas aeruginosa turned out to be 12.5 µg/mL (≈ 36 µM); with Escherichia coli, 12.5 µg/mL (≈ 36 µM); in the test on Bacillus subtilis, 50 µg/mL (≈ 144 µM); in the test on Staphylococcus aureus, 25 µg/mL (≈ 72 µM).

For `Cc1ncc([N+](=O)[O-])n1CCSc1nnc(-c2ccc(N)nc2)o1`, the IC50 turned out to be 30.9 µM in the test with SGC-7901, 9.4 µM with HepG2 and 26.8 µM with MCF7.

With `Cc1ncc([N+](=O)[O-])n1CCSc1nnc(-c2ccncc2)o1`, the half-inhibitory concentration (IC50) in the test on SGC-7901 was found to be 15.9 µM; with HepG2, 14.8 µM; in the test on MCF7, 12.6 µM.

Turning to `Cc1ncc([N+](=O)[O-])n1CCSc1nnc(-c2ccnc(N)c2)o1`, the IC50 with SGC-7901 was found to be 30 µM; in test [1] it was 1.27 µM; in the test with HepG2 it was 0.9 µM; with MCF7, 20 µM. Moreover, the MIC turned out to be 6.25 µg/mL (≈ 18 µM) in the test on Pseudomonas aeruginosa, 3.13 µg/mL (≈ 9.01 µM) in the test with Escherichia coli, 50 µg/mL (≈ 144 µM) with Bacillus subtilis and 25 µg/mL (≈ 72 µM) in the test on Staphylococcus aureus.

Regarding `Cc1ncc([N+](=O)[O-])n1CCSc1nnc(-c2ccnc(Cl)c2)o1`, the IC50 with SGC-7901 is 32.3 µM; in test [1], 4.1 µM; in the test on HepG2, 11.6 µM; with MCF7, 40.5 µM.

For `Cc1ncc([N+](=O)[O-])n1CCSc1nnc(-c2cccc3ccccc23)o1`, the IC50 was 8.8 µM in the test with SGC-7901, 10.6 µM in the test with HepG2 and 30.1 µM in the test with MCF7.

For `Cc1ncc([N+](=O)[O-])n1CCSc1nnc(-c2ccccc2)o1`, the values for the IC50 in the test with SGC-7901, in the test with HepG2 and in the test with MCF7 were 30.1 µM, 17.5 µM and 20.5 µM, respectively.

`Cc1ccccc1-c1nnc(SCCn2c([N+](=O)[O-])cnc2C)o1`: the IC50 with SGC-7901 is 32.3 µM; with HepG2, 5.1 µM; in the test with MCF7, 15.8 µM.

For the compound `Cc1ccc(-c2nnc(SCCn3c([N+](=O)[O-])cnc3C)o2)cc1`, the IC50 with SGC-7901 is 12.5 µM; in test [1] it was more than 10 µM; in the test with HepG2, 2.2 µM; with MCF7 it was 15.5 µM.

In the case of `COc1ccccc1-c1nnc(SCCn2c([N+](=O)[O-])cnc2C)o1`, the IC50 in the test on SGC-7901 was determined as 30.5 µM; with HepG2, 10 µM; in the test on MCF7 it was 10.8 µM.

For `COc1ccc(-c2nnc(SCCn3c([N+](=O)[O-])cnc3C)o2)cc1`, the IC50 was determined as 10.2 µM with SGC-7901, 5.8 µM in the test on HepG2 and 10.6 µM in the test with MCF7.

For the compound `Cc1ncc([N+](=O)[O-])n1CCSc1nnc(-c2ccccc2N)o1`, the IC50 in the test with SGC-7901 came out at 35.1 µM; with HepG2 it was 4.5 µM; in the test with MCF7, 20.1 µM.

Turning to `Cc1ncc([N+](=O)[O-])n1CCSc1nnc(-c2ccc(N)cc2)o1`, the results for the IC50 with SGC-7901, with HepG2 and in the test on MCF7 were 31.7 µM, 6.7 µM and 19.8 µM, respectively.

Turning to `CCOc1ccccc1-c1nnc(SCCn2c([N+](=O)[O-])cnc2C)o1`, the 50% inhibitory concentration (IC50) in the test with SGC-7901 is 30.3 µM; in the test with HepG2, 9.8 µM; in the test with MCF7, 25.9 µM.

As to `CCOc1ccc(-c2nnc(SCCn3c([N+](=O)[O-])cnc3C)o2)cc1`, the IC50 in the test on SGC-7901 was determined as 14.1 µM; in test [1] it was 6.3 µM; in the test on HepG2 it was 1.9 µM; in the test with MCF7 it was 16.6 µM.

Consider `Cc1ncc([N+](=O)[O-])n1CCSc1nnc(-c2ccccc2[N+](=O)[O-])o1`, for which the IC50 in the test on SGC-7901 amounted to 30 µM; in test [1], 0.47 µM; in the test with HepG2 it was 0.7 µM; with MCF7, 18.3 µM. Moreover, the MIC in the test on Pseudomonas aeruginosa was 3.13 µg/mL (≈ 8.32 µM); in the test on Escherichia coli it was 1.56 µg/mL (≈ 4.15 µM); in the test with Bacillus subtilis, 3.13 µg/mL (≈ 8.32 µM); in the test with Staphylococcus aureus, 1.56 µg/mL (≈ 4.15 µM).

For `Cc1ncc([N+](=O)[O-])n1CCSc1nnc(-c2ccc([N+](=O)[O-])cc2)o1`, the results for the IC50 with SGC-7901, in the test on HepG2 and in the test on MCF7 were 12.2 µM, 4.1 µM and 12.7 µM, respectively.

As to `Cc1ncc([N+](=O)[O-])n1CCSc1nnc(-c2ccccc2F)o1`, the IC50 amounted to 33.7 µM with SGC-7901, 3.7 µM in the test with HepG2 and 20.5 µM with MCF7.

`O=c1[nH]cc(F)c(=O)[nH]1` [FLUOROURACIL]: the IC50 was determined as 28.9 µM in the test with SGC-7901, 22.8 µM in the test on HepG2 and 16.7 µM with MCF7.

Take `NC[C@H]1O[C@H](O[C@H]2[C@H](O)[C@@H](O[C@H]3O[C@H](CO)[C@@H](O)[C@H](N)[C@H]3O)[C@H](N)C[C@@H]2N)[C@H](O)[C@@H](O)[C@@H]1O` [KANAMYCIN]: the MIC is 3.13 µg/mL (≈ 6.46 µM) in the test on Pseudomonas aeruginosa, 3.13 µg/mL (≈ 6.46 µM) with Escherichia coli, 1.56 µg/mL (≈ 3.22 µM) in the test with Bacillus subtilis and 1.56 µg/mL (≈ 3.22 µM) with Staphylococcus aureus.

In test [1], `Nc1nc2[nH]cc(CCc3ccc(C(=O)N[C@@H](CCC(=O)O)C(=O)O)cc3)c2c(=O)[nH]1` [PEMETREXED] gave an IC50 of 76 µM.

Consider `Cc1nc(=O)c2cc(CN(C)c3ccc(C(=O)N[C@@H](CCC(=O)O)C(=O)O)s3)ccc2[nH]1` [RALTITREXED], for which the IC50 with SGC-7901 worked out at 8.7 µM; in the test with HepG2 it was 1.3 µM; in the test on MCF7, 12.6 µM. The MIC with Pseudomonas aeruginosa worked out at 50 µg/mL (≈ 109 µM); in the test with Escherichia coli it was 25 µg/mL (≈ 54.5 µM); in the test with Bacillus subtilis, 25 µg/mL (≈ 54.5 µM); in the test with Staphylococcus aureus, 50 µg/mL (≈ 109 µM).
